Experimental data as given in patent US7674823B2, “DNA-PK inhibitors” (Cancer Research Technology Limited, priority 2001, dated 2010).
pIC50: −log10 of the molar value. Like-named read-outs stand apart in the source and are kept apart here.

How the values were obtained:
[1] = molecular target: T1, Mammalian DNA-PK, isolated from Hela cell nuclear extract (Homo sapiens, UniProt P78527); assay: DNA-PK inhibition assay (33P-ATP, filter binding); format: biochemical
T1 construct: Mammalian DNA-PK, isolated from Hela cell nuclear extract; endogenous in cells; host or cells: HeLa cell nuclear extract (purified per Gell and Jackson 1999)
Protocol: In order to assess the inhibitory action of the compounds against DNA-PK in vitro, the following assay was used to determine IC50 values.
The total assay volume per well was 40 μl.
After 10 minutes of incubation at 30° C. the reactions were initiated by the addition of Na-ATP (50 μM final), ^33p-γATP and a 30mer double stranded DNA oligonucleotide (10 ng/μl) in a volume of 10 μl. Designated positive and negative reaction wells were done in combination with compound wells (unknowns) in order to calculate % enzyme activities. The plates were then shaken for 2 minutes and incubated at 30° C. for 45 minutes.
Following the incubation, the reactions were quenched by the addition of 50 μl 30% acetic acid to each well. The plates were then shaken for 5 minutes and the contents of each plate (80 μl from each well) transferred over to a 96 well Polyfiltronics filtration plate, containing P81-phosphocellulose membrane (TRADE MARK)(Whatman, UK). The solutions were vacuum pumped through the membrane and each well membrane washed four times using 300 μl of 15% acetic acid. The well membranes were then air dried and 20 μl of scintillant was added to each well.
The plates were transferred to a TopCount NXT (TRADE MARK) (Packard, UK) for scintillation counting. Values recorded are counts per minute (cpm) following a 1 minute counting time for each well.
The enzyme activity for each compound is then calculated using the following equation: […]
These are determined over a range of different concentrations, normally from 10 μM down to 0.01 μM. Such IC50 values are used as comparative values to identify increased compound potencies.

[2] = concentration at which 50% of the enzyme activity is inhibited, read-out: DNA-PK Inhibition IC50
[3] = IC50 of less than about 1 μM and/or % inhibition of more than about 50 at 1 μM, read-out: DNA-PK inhibition IC50 (particular efficacy)

`O=c1cc(N2CCCC(CO)C2)oc2c1ccc1ccccc12` (centres unmarked) [Compound 313, 2-(3-Hydroxymethyl-piperidin-1-yl)-benzo[h]chromen-4-one] gave a melting point of 209 to 210 °C.

For `O=c1cc(N(CCO)CCO)nc2c3ccccc3ccn12` [Compound 11, 2-[Bis-(2-hydroxy-ethyl)-amino]pyrimido[2,1-a]isoquinolin-4-one], the melting point was 211 to 212 °C.

`O=c1cc(N2CCOCC2)cc(-c2ccccc2)o1` [Compound 1, 4-morpholin-4-yl-6-(phenyl)-pyran-2-one] showed a melting point of 161 to 162 °C.

For `C[C@@H]1CN(c2cc(=O)c3ccc4ccccc4c3o2)C[C@H](C)O1` [Compound 309, 2-(2,6-cis-dimethyl-morpholin-4-yl)-benzo[h]chromen-4-one], the melting point was 211 to 212.5 °C.

Molecule `CC1CCC(C)N(c2cc(=O)n3ccc4ccccc4c3n2)C1` (centres unmarked) [Compound 7, 2-(2,5-Dimethyl-piperidin-1-yl)pyrimido[2,1-a]isoquinolin-4-one] has a melting point of 214 to 216 °C.

Work on `O=c1cc(-c2ccccc2F)oc(N2CCOCC2)c1` [Compound 290, 6-(2-fluorophenyl)-2-(morpholin-4-yl)pyran-4-one] yielded a melting point of 137 to 138 °C.

`O=c1cc(NCC(O)CO)nc2c3ccccc3ccn12` (centres unmarked) [Compound 19, 2-(2,3-Dihydroxypropylamino)-pyrimido[2,1-a]isoquinolin-4-one] showed a melting point of 215 to 216 °C.

With `Cc1cccc2c(=O)cc(N3CCOCC3)oc12` [Compound 302, 8-Methyl-2-morpholin-4-yl-chromen-4-one] the melting point was 148 °C.

Molecule `CN(CCC#N)c1cc(=O)n2ccc3ccccc3c2n1` [Compound 17, 3-[Methyl-(4-oxo-4H-pyrimido[2,1-a]isoquinolin-2-yl)-amino]-propionitrile] has a melting point of 166 to 167 °C.

Molecule `O=c1cc(N2CCOCC2)oc2cc(OCc3ccccc3Cl)ccc12` [Compound 417, 7-(2-Chlorobenzyloxy)-2-morpholin-4-yl-chromen-4-one] has a melting point of 167 to 168 °C.

Work on `CC(C)(C)c1ccc(-c2cc(N3CCOCC3)cc(=O)o2)cc1` [Compound 2, 4-morpholin-4-yl-6-(4-(t-butyl)phenyl)-pyran-2-one] yielded a melting point of 230 to 232 °C.

`O=c1cc(NCC2CCCO2)oc2c1ccc1ccccc12` (centres unmarked) [Compound 316, 2-[(Tetrahydrofuran-2-ylmethyl)-amino]-benzo[h]chromen-4-one] gave a melting point of 139 to 140 °C.

`O=c1cc(NCCc2cccs2)nc2c3ccccc3ccn12` [Compound 18, 2-(2-Thiophen-2-yl-ethylamino)-pyrimido[2,1-a]isoquinolin-4-one] showed a melting point of 162 to 163 °C.

`O=c1cc(N2CCOCC2)oc2c(OS(=O)(=O)C(F)(F)F)cccc12` [Compound 305, Trifluoro-methanesulfonic acid 2-morpholin-4-yl-4-oxo-4H-chromen-8-yl ester] gave a melting point of 177.8 to 178.9 °C.

`CN1CCN(c2cc(=O)c3ccc4ccccc4c3o2)CC1` [Compound 314, 2-(4-Methyl-piperazin-1-yl)-benzo[h]chromen-4-one] gave a melting point of 184 to 185 °C.

With `O=c1cc(NCCO)nc2c3ccccc3ccn12` [Compound 22, 2-(2-Hydroxy-ethylamino)-pyrimido[2,1-a]isoquinolin-4-one] the melting point was 218 to 221 °C.

For `O=c1cc(N2CCCC(CO)C2)nc2c3ccccc3ccn12` (centres unmarked) [Compound 9, 2-(3-Hydroxymethyl-piperidin-1-yl)pyrimido[2,1-a]isoquinolin-4-one], the melting point was 165 to 166 °C.

`O=c1cc(NCC(O)c2cccc(O)c2)nc2c3ccccc3ccn12` (centres unmarked) [Compound 21, 2-[2-Hydroxy-2-(3-hydroxy-phenyl)-ethylamino]-pyrimido[2,1-a]isoquinolin-4-one] showed a melting point of 159 to 161 °C.

Work on `CC(O)CNc1cc(=O)n2ccc3ccccc3c2n1` (centres unmarked) [Compound 20, 2-(2-Hydroxypropylamino)-pyrimido[2,1-a]isoquinolin-4-one] yielded a melting point of 199 to 200 °C.

Work on `C[C@@H]1CN(c2cc(=O)n3ccc4ccccc4c3n2)C[C@H](C)O1` [Compound 13, 2-((2S,6R)-2,6-Dimethyl-morpholin-4-yl)-pyrimido[2,1-a]isoquinolin-4-one] yielded a pIC50 [1, 2] of 5.10 and a melting point of 208 to 209 °C.

Molecule `COc1cccc2c(=O)cc(N3CCOCC3)oc12` [Compound 303, 8-Methoxy-2-morpholin-4-yl-chromen-4-one] has a melting point of 165 °C.

Molecule `O=c1cc(N2CCOCC2)oc2cc(OCC3CCCCC3)ccc12` [Compound 419, 7-Cyclohexylmethoxy-2-(morpholin-4-yl)-chromen-4-one] has a pIC50 [1, 2] of 6.00 and a melting point of 187 to 188 °C.

In the case of `O=c1cc(N2CCOCC2)oc2cc(OS(=O)(=O)C(F)(F)F)ccc12` [Compound 306, Trifluoro-methanesulfonic acid 2-morpholin-4-yl-4-oxo-4H-chromen-7-yl ester], the melting point was 143 to 145 °C.

With `O=c1cc(N2CCC(CO)CC2)oc2c1ccc1ccccc12` [Compound 318, 2-(4-Hydroxymethyl-piperidin-1-yl)-benzo[h]chromen-4-one] the pIC50 [1, 3] was > 6.00.

With `O=C(NC1CC1)c1cccc(-c2cc(=O)cc(N3CCOCC3)o2)c1` [Compound 74] the pIC50 [1, 3] was > 6.00.

In the case of `O=C(NCCSCc1c(F)cccc1Cl)c1ccc(-c2cc(=O)cc(N3CCOCC3)o2)cc1` [Compound 187], the pIC50 [1, 3] was > 6.00.

For `O=c1cc(N2CCOCC2)oc2ccc(-c3ccccc3)cc12` [Compound 298, 2-(Morpholin-4-yl)-6-phenylchromen-4-one], the melting point was 218 to 220 °C.

With `O=c1cc(N2CCCCC2)oc2c1ccc1ccccc12` [Compound 295, 2-piperidin-1-yl-benzo[h]chromen-4-one] the melting point was 205 to 207 °C.

For `O=c1cc(-c2ccc3c(c2)OCCO3)oc(N2CCOCC2)c1` [Compound 60], the pIC50 [1, 3] was > 6.00.

For `O=C(NN1CCOCC1)c1cccc(-c2cc(=O)cc(N3CCOCC3)o2)c1` [Compound 146], the pIC50 [1, 3] was > 6.00.

With `O=c1cc(-c2ccc(CN3CCc4ccccc4C3)cc2)oc(N2CCOCC2)c1` [Compound 260] the pIC50 [1, 3] was > 6.00.

For `O=c1cc(N2CCOCC2)oc2cc(OCCS(=O)(=O)c3ccccc3)ccc12` [Compound 366], the pIC50 [1, 3] was > 6.00.

For `CC(CNC(=O)c1ccc(-c2cc(=O)cc(N3CCOCC3)o2)cc1)c1ccc(Cl)cc1` (centres unmarked) [Compound 173], the pIC50 [1, 3] was > 6.00.

In the case of `CN(C)CCN(Cc1ccccc1)C(=O)c1cccc(-c2cc(=O)cc(N3CCOCC3)o2)c1` [Compound 106], the pIC50 [1, 3] was > 6.00.

For `COc1ccc(CCNC(=O)c2ccc(-c3cc(=O)cc(N4CCOCC4)o3)cc2)cc1` [Compound 167], the pIC50 [1, 3] was > 6.00.

For `CC(O)C(=O)Nc1ccc(-c2cc(=O)cc(N3CCOCC3)o2)cc1` (centres unmarked) [Compound 268], the pIC50 [1, 3] was > 6.00.

With `CCN(CC)CCCNC(=O)c1cccc(-c2cc(=O)cc(N3CCOCC3)o2)c1` [Compound 118] the pIC50 [1, 3] was > 6.00.

With `O=c1cc(-c2ccc(CN3Cc4cccc5cccc(c45)C3)cc2)oc(N2CCOCC2)c1` [Compound 258] the pIC50 [1, 3] was > 6.00.

Molecule `CN(CC(O)c1ccccc1)c1cc(=O)n2ccc3ccccc3c2n1` (centres unmarked) [Compound 16, 2-[(2-Hydroxy-2-phenyl-ethyl)-methyl-amino]-pyrimido[2,1-a]isoquinolin-4-one] has a melting point of 195 to 196 °C.

With `O=c1cc(N2CCNCC2)oc2c1ccc1ccccc12` [Compound 311, 2-piperazin-1-yl-benzo[h]chromen-4-one] the melting point was 208 to 209 °C.

In the case of `O=c1cc(NCC2CCCO2)nc2c3ccccc3ccn12` (centres unmarked) [Compound 10, 2-[(Tetrahydro-furan-2-ylmethyl)-amino]pyrimido[2,1-a]isoquinolin-4-one], the melting point was 174 to 175 °C.

For `O=C(NC1CCC(O)CC1)c1cccc(-c2cc(=O)cc(N3CCOCC3)o2)c1` (centres unmarked) [Compound 114], the pIC50 [1, 3] was > 6.00.

Work on `O=c1cc(N2CCOCC2)oc2ccc(Br)cc12` [Compound 308, 6-Bromo-2-morpholin-4-yl-chromen-4-one] yielded a melting point of 147 to 149 °C.

For `O=C(c1ccc(-c2cc(=O)cc(N3CCOCC3)o2)cc1)N(Cc1ccccc1)Cc1ccccc1` [Compound 166], the pIC50 [1, 3] was > 6.00.

With `O=c1cc(N2CCOCC2)oc2c(-c3cccc(-c4ccccc4)c3)cccc12` [Compound 389] the pIC50 [1] was > 6.00.

For `COc1ccc(-c2cc(N3CCOCC3)cc(=O)o2)cc1` [Compound 3, 6-(4-methoxyphenyl)-4-morpholin-4-yl-pyran-2-one], the melting point was 212 to 213 °C.

For `COCC(Cc1ccccc1)NC(=O)c1ccc(-c2cc(=O)cc(N3CCOCC3)o2)cc1` (centres unmarked) [Compound 200], the pIC50 [1, 3] was > 6.00.

`O=c1cc(N2CC[C@H](O)C2)nc2c3ccccc3ccn12` [Compound 12, 2-((S)-3-Hydroxy-pyrrolin-1-yl)-pyrimido[2,1-a]isoquinolin-4-one] showed a pIC50 ([1]; read-out: DNA-PK Inhibition IC50) of 4.98.

For `Cc1ccccc1CNC(=O)c1ccc(-c2cc(=O)cc(N3CCOCC3)o2)cc1` [Compound 163], the pIC50 [1, 3] was > 6.00.

In the case of `CCOC(=O)C1CCCN(C(=O)c2ccc(-c3cc(=O)cc(N4CCOCC4)o3)cc2)C1` (centres unmarked) [Compound 215], the pIC50 [1, 3] was > 6.00.

In the case of `O=C(NCc1ccccn1)c1ccc(-c2cc(=O)cc(N3CCOCC3)o2)cc1` [Compound 214], the pIC50 [1, 3] was > 6.00.
